From BindingDB's records for doi:10.1021/jm960093o (Agouron Pharmaceuticals, 1996)
pIC50: −log10 of the molar value.

Biological target: T1, Dimer of Gag-Pol polyprotein [489-587] (Human immunodeficiency virus 1, UniProt P12497)
T1 construct: 489-587
Test: Protease Inhibition Assay
Details: pH 5.6; 37 °C
Method: Protease activity was measured by continuous chromogenic assay. The chromogenic peptide His-Lys-Ala-Arg-Val-Leu- (p-NO2-Phe)-Glu-Ala-Nleu-Ser (Bachem) was used as a substrate. Reactions were followed by the decrease of absorbance at 300 nm measured by spectrophotometer. Experimental results were analyzed by the nonlinear regression analysis, using a mathematical model for tight binding inhibitors.

CC(C)(C)NC(=O)c1ccccc1CC(O)CSc1ccccc1NC(=O)C(C)(C)C (centres undefined) [N-tert-butyl-2-(3-{[2-(2,2-dimethylpropanamido)phenyl]sulfanyl}-2-hydroxypropyl)benzamide]
pIC50: < 3.70

CC(C)(C)NC(=O)c1ccccc1NCC(O)Cc1ccc2ccccc2c1C(=O)NC(C)(C)C (centres undefined) [N-tert-butyl-2-(3-{[2-(tert-butylcarbamoyl)phenyl]amino}-2-hydroxypropyl)naphthalene-1-carboxamide]
pIC50: 3.92

CC(C)(C)NC(=O)c1ccccc1SCC(O)c1ccccc1C(=O)NC(C)(C)C (centres undefined) [N-tert-butyl-2-({2-[2-(tert-butylcarbamoyl)phenyl]-2-hydroxyethyl}sulfanyl)benzamide]
pIC50: < 3.70

CC(C)N1CCC(CC(O)CCc2ccc3ccccc3c2C(=O)NC(C)(C)C)=C(C(=O)NC(C)(C)C)C1 (centres undefined) [N-tert-butyl-4-{4-[1-(tert-butylcarbamoyl)naphthalen-2-yl]-2-hydroxybutyl}-1-(propan-2-yl)-1,2,5,6-tetrahydropyridine-3-carboxamide]
pIC50: 4.15
